Measurements published in patent US20230416271A1, “HETEROARYLQUINAZOLINE COMPOUNDS AS PROTEIN KINASE INHIBITORS” (CHENGDU CYNOGEN BIO-PHARMACEUTICAL TECHNOLOGY CO., LTD., priority 2020, published 2023).

How the values were obtained:
Type in all cases: biochemical
[1] = molecular target: CDK9/cyclin T1 (Homo sapiens (Human), UniProt P50750); experiment: Kinase activity assay (Caliper Mobility Shift Assay), CDK9/cyclin T1
Experimental: (§1) The inhibitory effect of compounds against the kinase CDK4/cyclin D3 was detected by Caliper Mobility Shift Assay method. The final concentration of the compounds to be tested was set at 10 concentrations starting from 1 uM by 3-fold serial dilution. 5 μL of compounds at 5-fold final concentration and 10 μL of CDK4/cyclin D3 kinase solution at a final concentration of 10 nM was added to a 384-well reaction plate, respectively. The plate was pre-incubated for 10 min at room temperature (with negative control wells containing 10 uL of kinase buffer and 5 uL of 5% DMSO; positive control wells containing 10 μL of kinase solution and 5 uL of 5% DMSO). The reaction was initiated by adding 10 μL of ATP at a final concentration of 250 uM and the corresponding substrate peptide mixture at room temperature for 150 minutes. 30 uL of stop detection solution containing EDTA was added to stop the kinase reaction. Caliper EZ Reader was used to read the conversion rate. Conversion inhibition rate %=(average conversion rate of positive control %−conversion rate of sample %)/(average conversion rate of positive control %−average conversion rate of negative control %). wherein: negative control wells represent the conversion rate readings of wells without enzymatic activity; positive control wells represent conversion readings for wells with no compound inhibition. The log(inhibitor) vs. response—Variable slope of the analysis software GraphPad Prism 5 was used with log concentration value as the X-axis and the percent inhibition rate as the Y-axis to fit the dose-response curve, the IC50 value of each compound on the enzyme activity was thus obtained. Calculation formula: Y=Bottom+(Top−Bottom)/(1+10^((Log IC50−X)*HillSlope)).
(§2) The IC50 values and inhibitory activities of compounds of the present disclosure on CDK6/Cyclin D3, CDK2/Cyclin A2, and CDK9/cyclin T1 were tested in a similar manner.

[2] = molecular target: CDK6/Cyclin D3 (Homo sapiens (Human), UniProt Q00534); experiment: Kinase activity assay (Caliper Mobility Shift Assay), CDK6/Cyclin D3
CDK6/Cyclin D3, sequence (Q00534 whole entry, species assumed): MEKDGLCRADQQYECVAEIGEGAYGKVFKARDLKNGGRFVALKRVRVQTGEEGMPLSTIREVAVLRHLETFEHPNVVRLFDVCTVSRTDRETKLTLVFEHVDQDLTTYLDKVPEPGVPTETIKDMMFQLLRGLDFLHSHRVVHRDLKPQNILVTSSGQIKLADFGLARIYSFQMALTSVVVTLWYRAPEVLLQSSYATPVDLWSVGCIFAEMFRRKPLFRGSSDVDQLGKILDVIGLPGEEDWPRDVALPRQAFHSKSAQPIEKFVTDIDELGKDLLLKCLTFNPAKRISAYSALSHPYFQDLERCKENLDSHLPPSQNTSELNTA
CDK6/Cyclin D3, sequence (P30281 whole entry partner, species assumed): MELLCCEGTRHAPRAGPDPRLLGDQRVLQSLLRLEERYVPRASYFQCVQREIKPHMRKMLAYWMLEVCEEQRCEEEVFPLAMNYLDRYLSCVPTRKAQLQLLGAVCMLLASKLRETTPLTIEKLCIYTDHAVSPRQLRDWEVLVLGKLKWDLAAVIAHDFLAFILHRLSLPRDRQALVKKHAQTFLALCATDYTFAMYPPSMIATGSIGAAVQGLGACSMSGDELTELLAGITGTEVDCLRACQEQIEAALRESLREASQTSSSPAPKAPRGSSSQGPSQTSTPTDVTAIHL
Experimental: as §1, §2

[3] = molecular target: CDK4/cyclin D3 (Homo sapiens (Human), UniProt P11802); experiment: Kinase activity assay (Caliper Mobility Shift Assay), CDK4/cyclin D3; conditions: 10 nM kinase, 250 uM ATP
CDK4/cyclin D3, sequence (P11802 whole entry, species assumed): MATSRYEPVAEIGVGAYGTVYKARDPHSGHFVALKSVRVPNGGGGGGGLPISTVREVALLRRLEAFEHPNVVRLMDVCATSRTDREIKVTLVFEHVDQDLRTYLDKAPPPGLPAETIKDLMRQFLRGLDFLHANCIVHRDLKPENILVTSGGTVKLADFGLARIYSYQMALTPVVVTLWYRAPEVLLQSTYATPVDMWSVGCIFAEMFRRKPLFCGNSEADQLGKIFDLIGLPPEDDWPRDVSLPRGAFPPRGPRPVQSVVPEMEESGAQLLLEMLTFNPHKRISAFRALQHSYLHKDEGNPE
CDK4/cyclin D3, sequence (P30281 whole entry partner, species assumed): as the sequence (P30281 whole entry partner, species assumed) above
Experimental: as §1

[4] = molecular target: CDK2/Cyclin A2 (Homo sapiens (Human), UniProt P24941); experiment: Kinase activity assay (Caliper Mobility Shift Assay), CDK2/Cyclin A2
Experimental: as §1, §2

CDK9/cyclin T1, sequence (P50750 whole entry, species assumed): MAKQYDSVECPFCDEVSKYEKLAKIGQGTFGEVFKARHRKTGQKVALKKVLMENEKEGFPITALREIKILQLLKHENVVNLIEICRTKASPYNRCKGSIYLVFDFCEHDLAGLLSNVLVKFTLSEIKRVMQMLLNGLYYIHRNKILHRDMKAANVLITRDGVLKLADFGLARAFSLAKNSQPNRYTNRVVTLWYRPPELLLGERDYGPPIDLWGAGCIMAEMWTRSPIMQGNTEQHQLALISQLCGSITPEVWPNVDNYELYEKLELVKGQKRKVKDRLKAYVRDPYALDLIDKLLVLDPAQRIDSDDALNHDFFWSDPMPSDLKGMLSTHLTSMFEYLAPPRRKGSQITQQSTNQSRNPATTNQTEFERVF
CDK9/cyclin T1, sequence (O60563 whole entry partner, species assumed): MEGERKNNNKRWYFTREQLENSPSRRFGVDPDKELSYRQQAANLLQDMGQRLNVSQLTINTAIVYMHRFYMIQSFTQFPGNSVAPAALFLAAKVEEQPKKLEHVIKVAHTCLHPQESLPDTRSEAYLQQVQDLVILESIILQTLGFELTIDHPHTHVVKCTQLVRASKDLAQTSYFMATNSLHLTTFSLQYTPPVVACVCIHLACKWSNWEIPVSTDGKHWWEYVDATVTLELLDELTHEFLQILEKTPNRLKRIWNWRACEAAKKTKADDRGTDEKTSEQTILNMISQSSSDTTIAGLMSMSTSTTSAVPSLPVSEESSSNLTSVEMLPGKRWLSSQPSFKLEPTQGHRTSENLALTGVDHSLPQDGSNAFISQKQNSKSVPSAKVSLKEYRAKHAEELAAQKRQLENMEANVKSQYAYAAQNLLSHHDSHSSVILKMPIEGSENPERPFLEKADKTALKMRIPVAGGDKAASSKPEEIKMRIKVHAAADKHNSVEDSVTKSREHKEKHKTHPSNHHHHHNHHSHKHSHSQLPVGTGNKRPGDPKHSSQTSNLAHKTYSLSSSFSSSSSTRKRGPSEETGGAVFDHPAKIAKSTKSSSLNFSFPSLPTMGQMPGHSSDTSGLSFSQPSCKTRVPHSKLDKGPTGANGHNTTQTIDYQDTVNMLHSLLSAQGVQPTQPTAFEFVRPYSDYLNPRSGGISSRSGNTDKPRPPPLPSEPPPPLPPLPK

Row | IC50 [1] [nM] | IC50 [2] [nM] | IC50 [3] [nM] | IC50 [4] [nM] | Structure (SMILES)
1 | 25 | 36 | 32 | 42 | CC(C)c1noc2ccc3cnc(N[C@H]4CC[C@H](NC5CCOCC5)CC4)nc3c12 [I.1, (1R,4R)-N^1-(9-isopropylisoxazolo[5,4-h]quinazolin-2-yl)-N^4-(tetrahydro-2H-pyran-4-yl)cyclohexane-1,4-diamine]
2 | 16 | 26 | 22 | 12 | CC(C)c1noc2ccc3cnc(N[C@H]4CC[C@H](NC5CCNCC5)CC4)nc3c12 [I.2, (1R,4R)-N^1-(9-isopropylisoxazolo[5,4-h]quinazolin-2-yl)-N^4-(piperidin-4-yl)cyclohexane-1,4-diamine]
3 | 8 | 22 | 16 | 20 | CC(C)n1nnc2ccc3cnc(N[C@H]4CC[C@H](NC5CCOCC5)CC4)nc3c21 [II.2, (1R,4R)-N^1-(1-isopropyl-1H-[1,2,3]triazolo[4,5-h]quinazolin-8-yl)-N^4-(tetrahydro-2H-pyran-4-yl)cyclohexane-1,4-diamine]
4 | 11 | 37 | 43 | > 500 | CC(C)n1nnc2ccc3cnc(N[C@H]4CC[C@H](N5CCN(CC6CCCC6)CC5)CC4)nc3c21 [II.8, N-((1R,4R)-4-(4-(cyclopentylmethyl)piperazin-1-yl)cyclo-hexyl)-1-isopropyl-1H-[1,2,3]triazolo[4,5-h]quinazolin-8-amine]
5 | – | 8 | 3 | 1 | COCCS(=O)(=O)N1CCC(Nc2ncc3ccc4nnn(C(C)C)c4c3n2)CC1 [II.18, 1-isopropyl-N-(1-((2-methoxyethyl)sulfonyl)piperidin-4-yl)-1H-[1,2,3]triazolo[4,5-h]quinazolin-8-amine]
6 | – | 4 | 3 | 0.4 | CC(C)n1nnc2ccc3cnc(NC4CCN(S(=O)(=O)C(F)F)CC4)nc3c21 [II.19, N-(1-((difluoromethyl)sulfonyl)piperidin-4-yl)-1-isopropyl-1H-[1,2,3]triazolo[4,5-h]quinazolin-8-amine]
7 | – | 12 | 4 | 0.2 | CNS(=O)(=O)N1CCC(Nc2ncc3ccc4nnn(C(C)C)c4c3n2)CC1 [II.20, 4-((1-isopropyl-1H-[1,2,3]triazolo[4,5-h]quinazolin-8-yl)amino)-N-methylpiperidin-1-sulfamide]
8 | – | 5 | 2 | 0.2 | CC(C)n1nnc2c(F)cc3cnc(NC4CCN(S(C)(=O)=O)CC4)nc3c21 [II.21, 4-fluoro-1-isopropyl-N-(1-(methylsulfonyl)piperidin-4-yl)-1H-[1,2,3]triazolo[4,5-h]quinazolin-8-amine]
9 | – | 4 | 3 | 0.2 | CC(C)n1nnc2cc(F)c3cnc(NC4CCN(S(C)(=O)=O)CC4)nc3c21 [II.22, 5-fluoro-1-isopropyl-N-(1-(methylsulfonyl)piperidin-4-yl)-1H-[1,2,3]triazolo[4,5-h]quinazolin-8-amine]
10 | – | 9 | 3 | 0.4 | CC(C)n1nnc2c(Cl)cc3cnc(NC4CCN(S(C)(=O)=O)CC4)nc3c21 [II.23, 4-chloro-1-isopropyl-N-(1-(methylsulfonyl)piperidin-4-yl)-1H-[1,2,3]triazolo[4,5-h]quinazolin-8-amine]
11 | – | 16 | 4 | 1 | CC(C)n1nnc2c(Br)cc3cnc(NC4CCN(S(C)(=O)=O)CC4)nc3c21 [II.24, 4-bromo-1-isopropyl-N-(1-(methylsulfonyl)piperidin-4-yl)-1H-[1,2,3]triazolo[4,5-h]quinazolin-8-amine]
12 | – | 5 | 3 | 0.2 | [2H]c1cc2cnc(NC3CCN(S(C)(=O)=O)CC3)nc2c2c1nnn2C(C)C [II.25, 1-isopropyl-N-(1-(methylsulfonyl)piperidin-4-yl)-1H-[1,2,3]triazolo [4,5-h]quinazolin-4-d-8-amine]
13 | – | 8 | 3 | 0.4 | Cc1cc2cnc(NC3CCN(S(C)(=O)=O)CC3)nc2c2c1nnn2C(C)C [II.26, 1-isopropyl-4-methyl-N-(1-(methylsulfonyl)piperidin-4-yl)-1H-[1,2,3] triazolo[4,5-h]quinazolin-8-amine]
14 | – | 5 | 3 | 0.2 | CC(C)n1nnc2c(C(F)F)cc3cnc(NC4CCN(S(C)(=O)=O)CC4)nc3c21 [II.27, 4-(difluoromethyl)-1-isopropyl-N-(1-(methylsulfonyl)piperidin-4-yl)-1H-[1,2,3]triazolo[4,5-h]quinazolin-8-amine]
15 | – | 7 | 3 | 0.2 | CCS(=O)(=O)N1CCC(Nc2ncc3cc(C(F)F)c4nnn(C(C)C)c4c3n2)CC1 [II.28, 4-(difluoromethyl)-N-(1-(ethylsulfonyl)piperidin-4-yl)-1-isopropyl-1H-[1,2,3]triazolo[4,5-h]quinazolin-8-amine]
16 | – | 3 | 1 | 0.2 | CC(C)n1nnc2c(C(F)F)cc3cnc(NC4CCN(S(=O)(=O)C5CC5)CC4)nc3c21 [II.29, N-(1-(cyclopropylsulfonyl)piperidin-4-yl)-4-(difluoromethyl)-1-isopropyl-1H-[1,2,3]triazolo[4,5-h]quinazolin-8-amine]
17 | – | 6 | 3 | 0.3 | CC(C)n1nnc2c(C(F)F)cc3cnc(NC4CCN(S(=O)(=O)C(F)F)CC4)nc3c21 [II.30, 4-(difluoromethyl)-N-(1-((difluoromethyl)sulfonyl)piperidin-4-yl)-1-isopropyl-1H-[1,2,3]triazolo[4,5-h]quinazolin-8-amine]
18 | – | 2 | 1 | 0.2 | CC(C)n1nnc2c(CC(F)(F)F)cc3cnc(NC4CCN(S(C)(=O)=O)CC4)nc3c21 [II.31, 1-isopropyl-N-(1-(methylsulfonyl)piperidin-4-yl)-4-(2,2,2-trifluoro-ethyl)-1H-[1,2,3]triazolo[4,5-h]quinazolin-8-amine]
19 | – | 9 | 5 | 0.2 | C[C@@]1(O)CCC[C@H]1n1nnc2ccc3cnc(NC4CCN(S(C)(=O)=O)CC4)nc3c21 [II.32, (1R,2R)-1-methyl-2-(8-((1-(methylsulfonyl)piperidin-4-yl)amino)-1H-[1,2,3]triazolo[4,5-h]quinazolin-1-yl)cyclopentan-1-ol]
20 | – | 5 | 3 | 0.3 | C[C@@]1(O)CCC[C@H]1n1nnc2c(C(F)F)cc3cnc(NC4CCN(S(C)(=O)=O)CC4)nc3c21 [II.33]
21 | – | 35 | 55 | 296 | CC(C)n1nnc2ccc3cnc(NC4CCCNC4)nc3c21 (stereo not shown) [II.34, 1-isopropyl-N-(piperidin-3-yl)-1H-[1,2,3]triazolo[4,5-h]quinazolin-8-amine]
22 | – | 58 | 50 | 10 | CC(C)n1nnc2ccc3cnc(NC4CCC(=O)NC4)nc3c21 (stereo not shown) [II.35, 5-((1-isopropyl-1H-[1,2,3]triazolo[4,5-h]quinazolin-8-yl)amino)piperidin-2-one]
23 | – | 446 | 253 | > 500 | CC(C)n1nnc2ccc3cnc(NC4CCCNC4=O)nc3c21 (stereo not shown) [II.36, 3-((1-isopropyl-1H-[1,2,3]triazolo[4,5-h]quinazolin-8-yl)amino)piperidin-2-one]
24 | – | 12 | 4 | 0.5 | CC(C)n1nnc2c1-c1nc(NC3CCN(S(C)(=O)=O)CC3)ncc1CC2 [II.37, 1-isopropyl-N-(1-(methylsulfonyl)piperidin-4-yl)-4,5-dihydro-1H-[1,2,3]triazolo[4,5-h]quinazolin-8-amine]
25 | – | 7 | 3 | 0.3 | CC(C)n1nnc2c1-c1nc(NC3CCN(S(=O)(=O)C4CC4)CC3)ncc1CC2 [II.38, N-(1-(cyclopropylsulfonyl)piperidin-4-yl)-1-isopropyl-4,5-dihydro-1H-[1,2,3]triazolo[4,5-h]quinazolin-8-amine]
26 | – | 10 | 3 | 0.5 | CC(C)n1nnc2c1-c1nc(NC3CCN(S(=O)(=O)C(F)F)CC3)ncc1CC2 [II.39, N-(1-((difluoromethyl)sulfonyl)piperidin-4-yl)-1-isopropyl-4,5-dihydro-1H-[1,2,3]triazolo[4,5-h]quinazolin-8-amine]
